Experimental data reported in US11472799B2, “Serine threonine kinase (AKT) degradation / disruption compounds and methods of use” (Icahn School of Medicine at Mount Sinai, priority 2018, dated 2022).

Assays:
AKT [1] = experiment: Western blot of AKT protein levels in PC-3 cells; format: cell-based, human
Description: PC-3, U87MG, HCC1143, MDA-MB-231, MDA-MB-468, BT474 and MCF-7 cell lines were purchased from ATCC. Cell lines were regularly tested in the lab for mycoplasma. All cells were cultured at 37° C. and 5% CO2. PC-3, U87MG, MDA-MB-231, MCF-7 and BT474 cells were cultured in 1×DMEM (Corning, 10-013-CV) with 10% fetal bovine serum (Atlanta Biologicals S11150) and 1× Penicillin/Streptomycin. HCC1143 cells were cultured in RPMI (Corning, 10-040-CV) medium with 10% fetal bovine serum (Atlanta Biologicals S11150) and 1× Penicillin/Streptomycin. Cells were split using 0.05% or 0.25% trypsin (Corning 25-051-Cl or 25-053-Cl, respectively) before they reached full confluence and media was changed every 3-4 days. Cells were treated with compounds individually at different concentrations for 24 hrs. Cells were treated with DMSO, VHL, or PML alone as controls.
(§1) Cells were lysed in 2× sample buffer (125 mM Tris-HCl at pH 6.8, 10% βME, 2% SDS, 20% glycerol, 0.05% Bromophenol Blue, 8 M urea). Protein lysates were loaded into 4-12% Bis-Tris gels and resolved by electrophoresis. Samples were then blotted on PVDF membrane (Millipore IPVH00010) using the wet transfer technique (Invitrogen). Membranes were blocked in 5% milk-TBST for 1 hour, washed in TBST for 10 min, and incubated in primary antibody in 5% milk-TBST or 5% BSA-TBST at 4° C. for 16 h. Membranes were rinsed (3×6 min) in TBST and incubated in horseradish peroxidase-conjugated secondary antibodies in 5% milk-TBST for 1 hour and rinsed again in TBST (3×6 min). Membranes were visualized using the chemiluminescence system (Thermo 34080, 37075) on autoradiography film (Denville E3018). Primary Antibodies: R-actin (Sigma A5316), p-AKT (Ser473 CST-9721), total AKT (CST-9272), p-S6 (Ser240/244, CST-5364), p-PRAS40 (Thr246, CST-2997). Secondary Antibodies: Mouse (Thermo 31432), Rabbit (Thermo 31460).

AKT [2] = experiment: Western blot of AKT protein levels in U87MG cells; format: cell-based; conditions: 0.3 μM, 1 μM, 3 μM, or 10 μM for 24 h
Description: as §1

AKT [3] = experiment: Western blot of AKT protein levels and downstream signaling in BT474 cells; format: cell-based, human
Summary of the method: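 Lysates were immunoblotted with chemiluminescent detection for p-AKT Ser473, total AKT, p-S6 Ser240/244 and p-PRAS40 Thr246, using actin as loading control.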

AKT [4] = experiment: Western blot of AKT protein levels in MDA-MB-468 cells; format: cell-based; conditions: 0.3 μM, 1 μM, 3 μM, or 10 μM for 24 h
Description: as §1

AKT [5] = experiment: Time course Western blot of AKT degradation in BT474 cells; format: cell-based, human; conditions: for time point for the most significant AKT degradation: BT474 cells (FIGS. 2 and 5); for time-dependent reduction of AKT, p-AKT, P-PRAS40 (T246), and P-S6 (S240/244) protein levels: BT474 cells, 1 μM
Description: as §1

[6] = 0.3 μM, 1 μM, 3 μM, or 10 μM for 24 h (FIG. 4B)

Structure (SMILES): NC1(C(=O)N[C@@H](CCO)c2ccc(Cl)cc2)CCN(c2ncnc3[nH]ccc23)CC1 [AZD5363, 4-amino-N-[(1S)-1-(4-chlorophenyl)-3-hydroxypropyl]-1-(7H-pyrrolo[2,3-d]pyrimidin-4-yl)piperidine-4-carboxamide, reference compound]
- AKT protein levels (AKT [1]; [6]): no effect
- pAKT levels (AKT [1]; [6]): increased
- AKT protein levels (AKT [2]): no effect
- pAKT levels (AKT [2]): increased
- AKT protein levels (AKT [3]; 1 μM, 5 μM, or 10 μM for 24 h): no effect
- pAKT levels (AKT [3]; 1 μM, 5 μM, or 10 μM for 24 h): increased
- AKT protein levels (AKT [3]; 0.01-1 μM for 24 h (FIG. 4A)): no effect
- pAKT levels (AKT [3]; 0.01-1 μM for 24 h (FIG. 4A)): increased
- AKT protein levels (AKT [4]): no effect
- pAKT levels (AKT [4]): increased

Structure (SMILES): Cc1ncsc1-c1ccc(CNC(=O)[C@@H]2C[C@@H](O)CN2C(=O)[C@@H](NC(=O)CCCCCCCCCCNC(=O)CCNC[C@@H](C(=O)N2CCN(c3ncnc4c3[C@H](C)C[C@H]4O)CC2)c2ccc(Cl)cc2)C(C)(C)C)cc1 [XF038-166A, (2S,4R)-1-((S)-2-(11-(3-(((S)-2-(4-chlorophenyl)-3-(4-((5R,7R)-7-hydroxy-5-methyl-6,7-dihydro-5H-cyclopenta[d]pyrimidin-4-yl)piperazin-1-yl)-3-oxopropyl)amino)propanamido)undecanamido)-3,3-dimethylbutanoyl)-4-hydroxy-N-(4-(4-methylthiazol-5-yl)benzyl)pyrrolidine-2-carboxamide]
- time point for the most significant AKT degradation (AKT [5]): 24 h
- time-dependent reduction of AKT, p-AKT, P-PRAS40 (T246), and P-S6 (S240/244) protein levels (AKT [5]): time-dependently reduces
- suppression of AKT protein level and AKT activity (AKT [3]; Western blot (FIGS. 1, 3, 4)): effective in suppressing both AKT protein level and AKT activity

Structure (SMILES): Cc1ncsc1-c1ccc([C@H](C)NC(=O)[C@@H]2C[C@@H](O)CN2C(=O)[C@@H](NC(=O)CCCCCCCCCCNC(=O)CCNC[C@@H](C(=O)N2CCN(c3ncnc4c3[C@H](C)C[C@H]4O)CC2)c2ccc(Cl)cc2)C(C)(C)C)cc1 [XF042-162, (2S,4R)-1-((S)-2-(11-(3-(((S)-2-(4-chlorophenyl)-3-(4-((5R,7R)-7-hydroxy-5-methyl-6,7-dihydro-5H-cyclopenta[d]pyrimidin-4-yl)piperazin-1-yl)-3-oxopropyl)amino)propanamido)undecanamido)-3,3-dimethylbutanoyl)-4-hydroxy-N-((S)-1-(4-(4-methylthiazol-5-yl)phenyl)ethyl)pyrrolidine-2-carboxamide]
- time point for the most significant AKT degradation (AKT [5]): 24 h
- time-dependent reduction of AKT, p-AKT, P-PRAS40 (T246), and P-S6 (S240/244) protein levels (AKT [5]): time-dependently reduce

Structure (SMILES): CCn1c(-c2nonc2N)nc2c(C#CC(C)(C)O)ncc(OCCCNCCCC(=O)NCCCCCCCCNc3cccc4c3C(=O)N(C3CCC(=O)NC3=O)C4=O)c21 (stereo not shown) [XF067-113, 4-((3-((2-(4-amino-1,2,5-oxadiazol-3-yl)-1-ethyl-4-(3-hydroxy-3-methylbut-1-yn-1-yl)-1H-imidazo[4,5-c]pyridin-7-yl)oxy)propyl)amino)-N-(8-((2-(2,6-dioxopiperidin-3-yl)-1,3-dioxoisoindolin-4-yl)amino)octyl)butanamide]
- suppression of AKT protein level and AKT activity (AKT [1]; 1 μM (FIGS. 11 and 12)): effective in suppressing AKT protein level and AKT activity
